Data from patent US20080064048A1, “Methods for Selecting Proteins that are Readily Presented as Antigens on Dendritic Cells” (Medical and Biological Laboratories, Co., Ltd., priority 2004, published 2008).
Where a SMILES comes first, the peptide text is derived from it. The star is where a group is joined. Cbz = O=C(OCc1ccccc1)*

Tests used:
OT-I CD8+ T cells = experiment: Antigen presentation level: IL-2 production by OT-I CD8+ T cells (ELISA); type: cell-based, mouse; conditions: for effect of proteasome inhibitor on stimulation by OVA: DC2.4, OVA 250 μg/mL; for effect of proteasome inhibitor on stimulation by OVA / effect of proteasome inhibitor on stimulation by SIINFEKL peptide: lactastatin 10 μM, MG-132 25 μM; for effect of proteasome inhibitor on stimulation by SIINFEKL peptide: DC2.4, SIINFEKL 10 ng/mL
Excerpt: Whether knock-down of cellular components involved in ERAD decreases the cross-presentation of exogenous OVA antigen was examined using a system for evaluating the level of antigen presentation, which uses naive CD8^+ T cells from OT-I mice and DC2.4 cells. The DC2.4 cells used as a model of dendritic cells are of the H-2 Kb mouse MHC class I haplotype. OT-I (H-2 Kb) mice are transgenic mice expressing a T cell receptor (TCRα and β) that recognizes an antigenic peptide (SIINFEKL) (SEQ ID NO: 15) derived from OVA presented on the H-2 Kb molecules. The CD8^+ cells of OT-I mice are activated when they recognize OVA peptides presented by BMDCs derived from H-2 Kb mice or by DC2.4 cells. When OVA or bOVA is incubated with and affixed onto DC2.4 cells and the cells are further incubated with naive CD8^+ T cells of OT-I mice, the amount of IL-2 produced by OT-I CD8^+ T cells serves as an index of T-cell stimulation as a result of OVA antigen presented by DC2.4 cells.
Parental or knocked-down DC2.4 cells were pre-incubated in a culture medium supplemented with 50 μg mL^−1 polymyxin B for 30 minutes in the presence or absence of lactacystin or MG-132, and incubated with OVA (250 μg mL^−1) or SIINFEKL (SEQ ID NO: 15) peptides (10 ng mL^−1) for six hours. The cells were washed, fixed with 1% paraformaldehyde, and aliquoted into microtiter plates (5×10^4 per well). 5×10^4 CD8^+ T cells purified from splenocytes of OT-1 mice using magnetic beads were added to each well and after a 24-hour incubation, the IL-2 secretion was measured by ELISA (BD Biosciences) in triplicate. […]

DC2.4 cells = experiment: Pulse-chase degradation of cell-bound bOVA (SA beads, SDS-PAGE, Western blot); type: cell-based, mouse; conditions: for effect of inhibitor on decrease (degradation) of cell-bound bOVA: DC2.4, bOVA 1 h pulse, chase up to 4 h, MG-132 10 μM, lactacystin 2 μM, NH4Cl 50 mM; for effect of ERAD inhibition on degradation of accumulated bOVA: DC2.4, thapsigargin 300 nM, tunicamycin 2 μg
Protocol: Triton X-100 was used to lyse membranes. […] DC2.4 cells were pulsed with bOVA and chased. bOVA was recovered using SA beads, then separated by SDS-PAGE followed by Western blotting using SA-HRP Ctl: a control not containing inhibitors. […] Asterisks in the left panel indicate non-specific binding with SA-HRP.
Next, DC2.4 cells were incubated with bOVA for one hour, and this was then chased for up to four hours. Cell-bound bOVA was recovered from total cell lysates by streptavidin-agarose and separated by SDS-PAGE.
Depletion of Ca^2+ in the ER is known to inhibit ERAD. Thapsigargin (Tg) is known to decrease the Ca^2+ concentration in the ER lumen by binding to the ER membrane and functioning as an ionophore and to inhibit ERA D. Thus, in the presence of Tg, bOVA degradation by ERAD is predicted to be suppressed. DC2.4 cells were pulsed with bOVA in the presence of MG-132, then washed with PBS or with PBS containing 1 mM EGTA, and then chased for four hours.

OT-II CD4+ T cells = experiment: MHC class II antigen presentation: IL-2 production by OT-II CD4+ T cells; type: cell-based, mouse
Protocol: DC2.4 cells pretreated in the presence of NH4Cl were cultured with OVA, and then the stimulation of OT-I CD8^+ T cells in response to MHC […] presentation (circles) and stimulation of OT-II CD4^+ T cells in response to MHC class II antigen presentation (triangles) was determined by measuring IL-2 production levels. IL-2 production level in the presence of NH4Cl was expressed as a ratio relative to the control (IL-2 production was 700 pg/mL relative to OT-I, and 20 pg/mL relative to OT-II).

[1] = biological target: OVA-derived antigenic peptide SIINFEKL presented on H-2 Kb on DC2.4 cells (chicken; mouse) (UniProt P01887); experiment: cell-based or functional assay
TAP2 = biological target: T1, TAP2 (mouse, UniProt P36371 1-702); experiment: co-immunoprecipitation with anti-TAP2 from DC2.4 lysate, SA-HRP blot
T1 construct: Endogenous protein; also called TAP1/2
T1 sequence (looked up): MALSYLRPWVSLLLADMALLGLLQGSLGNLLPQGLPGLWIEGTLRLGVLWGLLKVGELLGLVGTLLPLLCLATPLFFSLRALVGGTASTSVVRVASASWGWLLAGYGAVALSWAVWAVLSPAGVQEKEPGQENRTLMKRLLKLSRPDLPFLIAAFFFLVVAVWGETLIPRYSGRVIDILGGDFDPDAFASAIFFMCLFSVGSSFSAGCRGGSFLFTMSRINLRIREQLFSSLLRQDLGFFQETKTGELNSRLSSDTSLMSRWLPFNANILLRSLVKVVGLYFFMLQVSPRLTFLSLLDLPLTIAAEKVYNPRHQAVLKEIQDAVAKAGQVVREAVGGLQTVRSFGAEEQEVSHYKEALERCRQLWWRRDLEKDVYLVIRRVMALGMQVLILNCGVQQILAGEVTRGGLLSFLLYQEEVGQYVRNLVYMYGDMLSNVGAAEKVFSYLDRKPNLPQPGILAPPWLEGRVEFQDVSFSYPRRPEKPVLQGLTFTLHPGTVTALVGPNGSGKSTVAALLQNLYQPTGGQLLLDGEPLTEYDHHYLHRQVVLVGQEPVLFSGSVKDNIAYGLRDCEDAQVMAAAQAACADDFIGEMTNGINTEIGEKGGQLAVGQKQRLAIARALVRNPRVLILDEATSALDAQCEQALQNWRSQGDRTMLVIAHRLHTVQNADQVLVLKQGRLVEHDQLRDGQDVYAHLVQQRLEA
Protocol: (§1) DC2.4 cells were incubated with bOVA and subjected to co-immunoprecipitation with anti-Sec61α. bOVA was added at 2.5 mg mL⁻¹ to cell lysates before immunoprecipitation (the two left-hand lanes in each panel). After SDS-PAGE, blotting was performed using SA-HRP and anti-Sec61α antibody.
(§2) 2×10⁷ DC2.4 or BMDC cells were cultured for four hours in a medium containing 10 μM MG-132 in the presence of bOVA at 250 μg mL⁻¹. Cells were lysed in 20 mM HEPES pH7.6 containing 1% digitonin and protease inhibitors to collect biotin-labeled samples. The samples were cleared of impurities in advance using protein G sepharose (Amersham Pharmacia Biotech), and after incubation with antibodies for precipitation (anti-Sec61β, anti Sec61α, anti-VCP, anti-BiP, anti-PDI, anti-calreticulin, anti-TAP1, and anti-TAP2), the immunoprecipitates were collected using protein G. When chicken anti-CHIP antibody was used, immunoprecipitates were collected using a rabbit anti-IgY column (a person, MBL). The precipitated samples were analyzed by SDS-PAGE and Western blotting.

TAP1 = biological target: T2, TAP1 (mouse, UniProt P21958 1-724); experiment: co-immunoprecipitation with anti-TAP1 from DC2.4 lysate, SA-HRP blot
T2 construct: Endogenous protein; also called TAP1/2
T2 sequence (looked up): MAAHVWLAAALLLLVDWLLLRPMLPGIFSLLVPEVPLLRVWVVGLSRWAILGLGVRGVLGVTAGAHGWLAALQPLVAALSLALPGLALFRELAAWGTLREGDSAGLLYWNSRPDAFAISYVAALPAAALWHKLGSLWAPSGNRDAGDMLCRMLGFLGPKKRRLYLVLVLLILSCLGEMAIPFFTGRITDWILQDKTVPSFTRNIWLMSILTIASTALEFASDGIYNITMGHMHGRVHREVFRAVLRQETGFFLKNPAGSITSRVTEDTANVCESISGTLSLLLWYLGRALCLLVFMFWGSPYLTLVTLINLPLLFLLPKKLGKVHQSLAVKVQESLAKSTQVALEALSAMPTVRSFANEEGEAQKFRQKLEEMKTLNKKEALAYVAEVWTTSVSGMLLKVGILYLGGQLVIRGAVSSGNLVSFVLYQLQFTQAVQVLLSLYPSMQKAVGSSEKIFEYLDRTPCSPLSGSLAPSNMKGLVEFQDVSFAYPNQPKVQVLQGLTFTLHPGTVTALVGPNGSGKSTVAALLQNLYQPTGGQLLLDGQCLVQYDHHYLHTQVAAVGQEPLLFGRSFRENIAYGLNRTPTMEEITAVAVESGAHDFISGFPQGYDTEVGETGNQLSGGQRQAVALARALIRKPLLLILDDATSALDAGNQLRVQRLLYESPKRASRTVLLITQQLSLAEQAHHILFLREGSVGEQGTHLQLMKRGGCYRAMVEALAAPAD
Protocol: as §1, §2

[2] = DC2.4 pretreated with NH4Cl, cultured with OVA
[3] = control without NH4Cl, DC2.4 cultured with OVA

CC(=O)N[C@@H](CSC(=O)[C@]1([C@@H](O)C(C)C)NC(=O)[C@H](C)[C@@H]1O)C(=O)O [lactacystin, reference compound]
effect of proteasome inhibitor on stimulation by OVA (OT-I CD8+ T cells): suppressed
effect of proteasome inhibitor on stimulation by SIINFEKL peptide (OT-I CD8+ T cells): did not suppress
effect of inhibitor on decrease (degradation) of cell-bound bOVA (DC2.4 cells): blocked

CC(C)C[C@@H](C=O)NC(=O)[C@H](CC(C)C)NC(=O)[C@H](CC(C)C)NC(=O)OCc1ccccc1 [MG-132, reference compound] (Cbz-Leu-Leu-Leu-aldehyde)
effect of proteasome inhibitor on stimulation by OVA (OT-I CD8+ T cells): suppressed
effect of proteasome inhibitor on stimulation by SIINFEKL peptide (OT-I CD8+ T cells): did not suppress
effect of inhibitor on decrease (degradation) of cell-bound bOVA (DC2.4 cells): blocked

C/C=C(/C)C(=O)O[C@H]1C(C)=C2[C@H]([C@@H]1OC(=O)CCCCCCC)[C@@](C)(OC(C)=O)C[C@H](OC(=O)CCC)[C@@]1(O)[C@H]2OC(=O)[C@@]1(C)O [Thapsigargin]
effect of ERAD inhibition on degradation of accumulated bOVA (DC2.4 cells): inhibited

Cl.N [NH4Cl, Ammonium chloride, reference compound]
effect on presentation of the OVA antigen with MHC class to OT-I CD8+ T cells (OT-I CD8+ T cells; [2]): did not reduce
effect on presentation of the OVA antigen with MHC class II to OT-II CD4+ cells (OT-II CD4+ T cells; [2]): inhibited
effect of inhibitor on decrease (degradation) of cell-bound bOVA (DC2.4 cells): did not significantly affect

tunicamycin
effect of ERAD inhibition on degradation of accumulated bOVA (DC2.4 cells): inhibited

OT-I T cell receptor (TCRα and β) on CD8+ T cells of OT-I mice
IL-2 production level [1]: 700 pg/mL

B1: OVA-KDEL: OVA with KDEL (Lys-Asp-Glu-Leu) added to its C-terminus, SEQ ID NO: 14 (protein)
chain: MGSIGAASMEFCFDVFKELKVHHANENIFYCPIAIMSALAMVYLGAKDSTRTQINKVVRFDKLPGFGDSIEAQCGTSVNVHSSLRDILNQITKPNDVYSFSLASRLYAEERYPILPEYLQCVKELYRGGLEPINFQTAADQARELINSWVESQTNGIIRNVLQPSSVDSQTAMVLVNAIVFKGLWEKAFKDEDTQAMPFRVTEQESKPVQMMYQIGLFRVASMASEKMKILELPFASGTMSMLVLLPDEVSGLEQLESIINFEKLTEWTSSNVMEERKIKVYLPRMKMEEKYNLTSVLMAMGITDVFSSSANLSGISSAESLKISQAVHAAHAEINEAGREVVGSAEAGVDAASVSEEFRADHPFLFCIKHIATNAVLFFGRCVSPASAEDYEYPSRSNGTKNNTSQASKDEL
antigen presentation level compared with OVA (OT-I CD8+ T cells; DC2.4, data not shown): stronger

B2: biotin-labeled chicken ovalbumin (bOVA) (other, UniProt P01012 2-386, looked up)
chain: GSIGAASMEFCFDVFKELKVHHANENIFYCPIAIMSALAMVYLGAKDSTRTQINKVVRFDKLPGFGDSIEAQCGTSVNVHSSLRDILNQITKPNDVYSFSLASRLYAEERYPILPEYLQCVKELYRGGLEPINFQTAADQARELINSWVESQTNGIIRNVLQPSSVDSQTAMVLVNAIVFKGLWEKAFKDEDTQAMPFRVTEQESKPVQMMYQIGLFRVASMASEKMKILELPFASGTMSMLVLLPDEVSGLEQLESIINFEKLTEWTSSNVMEERKIKVYLPRMKMEEKYNLTSVLMAMGITDVFSSSANLSGISSAESLKISQAVHAAHAEINEAGREVVGSAEAGVDAASVSEEFRADHPFLFCIKHIATNAVLFFGRCVSP
modifications: biotin-labeled (sites not given)
notes: Exogenous antigen added to mouse dendritic cells
binding result (TAP2): no binding
binding result (TAP1): no binding

B3: Chicken ovalbumin (protein)
chain: GSIGAASMEFCFDVFKELKVHHANENIFYCPIAIMSALAMVYLGAKDSTRTQINKVVRFDKLPGFGDSIEAQCGTSVNVHSSLRDILNQITKPNDVYSFSLASRLYAEERYPILPEYLQCVKELYRGGLEPINFQTAADQARELINSWVESQTNGIIRNVLQPSSVDSQTAMVLVNAIVFKGLWEKAFKDEDTQAMPFRVTEQESKPVQMMYQIGLFRVASMASEKMKILELPFASGTMSMLVLLPDEVSGLEQLESIINFEKLTEWTSSNVMEERKIKVYLPRMKMEEKYNLTSVLMAMGITDVFSSSANLSGISSAESLKISQAVHAAHAEINEAGREVVGSAEAGVDAASVSEEFRADHPFLFCIKHIATNAVLFFGRCVSP
notes: Chicken ovalbumin used as an antigen model
antigenicity for stimulation of CD8+ OT-I T cells (IL-2 production) (OT-I CD8+ T cells; DC2.4, dose-response OVA vs bOVA): equally antigenic
OVA stimulation of OT-I CD8+ T cells by knocked-down DC2.4 cells (OT-I CD8+ T cells; Sec61 (S22), VCP (V41) or CHIP (C4) knocked down): reduction in OVA stimulation
IL-2 production by OT-I CD8+ T cells (OT-I CD8+ T cells; [3]): 700 pg/mL
IL-2 production by OT-II CD4+ T cells (control) (OT-II CD4+ T cells; [3]): 20 pg/mL
